According to patent US9394282B2, “Pyrazole carboxamides as Janus kinase inhibitors” (Merck Sharp & Dohme Corp., priority 2011, dated 2016):

Columns and labels:
JAK2 = JAK2 (Homo sapiens (Human), UniProt O60674); assay: Jak biochemical HTRF assay, JAK2; settings: recombinant purified GST-tagged catalytic domain, HTRF format
Text: (§1) Jak Biochemical HTRF Assay Protocol
(§2) Subsequent reagent additions employed an Agilent Bravo.

JAK1 = JAK1 (Homo sapiens (Human), UniProt P23458); assay: Jak biochemical HTRF assay, JAK1; settings: recombinant purified GST-tagged catalytic domain; HTRF format; [ATP] 31.8 μM
Text: as §1, §2

Chain of JAK2 (O60674 849-1124): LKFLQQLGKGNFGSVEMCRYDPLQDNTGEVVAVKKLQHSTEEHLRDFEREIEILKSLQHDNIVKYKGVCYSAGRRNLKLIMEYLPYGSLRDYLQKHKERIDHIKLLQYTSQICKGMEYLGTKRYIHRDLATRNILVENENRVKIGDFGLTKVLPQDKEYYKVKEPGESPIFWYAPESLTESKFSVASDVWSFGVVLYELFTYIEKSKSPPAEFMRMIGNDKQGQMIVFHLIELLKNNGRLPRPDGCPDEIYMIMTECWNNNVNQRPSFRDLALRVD
Chain of JAK1 (P23458 875-1153): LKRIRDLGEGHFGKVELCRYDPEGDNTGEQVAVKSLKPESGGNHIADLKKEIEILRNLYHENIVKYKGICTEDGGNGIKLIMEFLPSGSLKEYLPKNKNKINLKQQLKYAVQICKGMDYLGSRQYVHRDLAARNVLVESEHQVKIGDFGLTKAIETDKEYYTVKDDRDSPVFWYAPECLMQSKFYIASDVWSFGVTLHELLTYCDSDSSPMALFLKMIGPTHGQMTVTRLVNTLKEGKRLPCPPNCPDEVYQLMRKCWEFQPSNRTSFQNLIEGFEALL

Structure (SMILES) | IC50 (JAK2; [ATP] […]) | IC50 (JAK1) | IC50 (JAK2; [ATP] 8.5 μM)
C[C@@]1(C#N)CS(=O)(=O)C[C@@H]1n1cc(C(N)=O)c(Nc2ccc(F)cc2)n1 (single isomer, unassigned) [Example 14-1, 1-((3R,4R or 3S,4S)-4-Cyano-4-methyl-1,1-dioxidotetrahydrothiophen-3-yl)-3-((4-fluorophenyl)amino)-1H-pyrazole-4-carboxamide] | 0.018 µM | 0.002 µM | 
CC(OC(=O)N1CC[C@@H](n2cc(C(N)=O)c(Nc3ccc(F)cc3)n2)[C@H](C#N)C1)C(F)(F)F (mixture of isomers) [Example 5-1, 2,2,2-Trifluoro-1-methylethyl(3R,4R and 3S,4S)-4-{4-carbamoyl-3-[(4-fluorophenyl)amino]-1H-pyrazol-1-yl}-3-cyanopiperidine-1-carboxylate] |  | 0.015 µM | 0.387 µM
N#C[C@@H]1CCN(C(=O)OC(CF)CF)CC1n1cc(C(N)=O)c(Nc2ccc(F)cc2)n1 (mixture of isomers) [Example 5-71, 2-fluoro-1-(fluoromethyl)ethyl (3S,4R and 3R,4S)-3-{4-carbamoyl-3-[(4-fluorophenyl)amino]-1H-pyrazol-1-yl}-4-cyanopiperidine-1-carboxylate] |  | 0.004 µM | 0.044 µM
N#C[C@@H]1CCN(CCC2CCOCC2)C[C@H]1n1cc(C(N)=O)c(Nc2ccc(F)cc2)n1 (racemic) [Example 6-10, 1-{(3S,4R and 3R,4S)-4-cyano-1-[2-(tetrahydro-2H-pyran-4-yl)ethyl]piperidin-3-yl}-3-[(4-fluorophenyl)amino]-1H-pyrazole-4-carboxamide] |  | 0.006 µM | 0.074 µM
N#C[C@@H]1CNCCC1n1cc(C(N)=O)c(Nc2ccc(F)cc2)n1 (mixture of isomers) [Example 3-3, 1-[(3R,4R and 3S,4S)-3-cyanopiperidin-4-yl]-3-[(4-fluorophenyl)amino]-1H-pyrazole-4-carboxamide] |  | 0.102 µM | 0.628 µM
N#C[C@@H]1CN(C(=O)OCCF)CC[C@H]1n1cc(C(N)=O)c(Nc2ccc(F)cc2)n1 (racemic) [Example 5-2, 2-fluoroethyl (3R,4R and 3S,4S)-4-{4-carbamoyl-3-[(4-fluorophenyl)amino]-1H-pyrazol-1-yl}-3-cyanopiperidine-1-carboxylate] |  | 0.004 µM | 0.104 µM
C[C@H]1OCC[C@@H](C#N)[C@@H]1n1cc(C(N)=O)c(Nc2ccnc(F)c2)n1 (mixture of isomers) [Example 10-2, 1-((2S,3R,4S and 2R,3S,4R)-4-cyano-2-methyltetrahydro-2H-pyran-3-yl)-3-((2-fluoropyridin-4-yl)amino)-1H-pyrazole-4-carboxamide] | 0.206 µM | 0.029 µM | 
N#C[C@@H]1CN(C(=O)OC(CF)CF)CC[C@H]1n1cc(C(N)=O)c(Nc2ccc(F)cc2)n1 (racemic) [Example 5-31, 2-fluoro-1-(fluoromethyl)ethyl (3R,4R and 3S,4S)-4-{4-carbamoyl-3-[(4-fluorophenyl)amino]-1H-pyrazol-1-yl}-3-cyanopiperidine-1-carboxylate] |  | 0.006 µM | 0.133 µM
N#CCC1(COC(=O)N2CC[C@@H](C#N)C(n3cc(C(N)=O)c(Nc4ccc(F)cc4)n3)C2)CC1 (mixture of isomers) [Example 5-88, [1-(cyanomethyl)cyclopropyl]methyl (3S,4R and 3R,4S)-3-{4-carbamoyl-3-[(4-fluorophenyl)amino]-1H-pyrazol-1-yl}-4-cyanopiperidine-1-carboxylate] |  | 0.0007 µM | 0.015 µM
